In ChEMBL document CHEMBL3763037 (J Med Chem, 2016):
Active and inactive are the calls of the source. The rule behind the calls is not given here.

What was measured:
LoVo = experiment: cells; details: Homo sapiens, 120 h
[1] = molecular target: Poly [ADP-ribose] polymerase 1 (Homo sapiens, UniProt P09874); experiment: Inhibition of human PARP1 using [3H]NAD as substrate after 1 min by microplate scintillation counting analysis
[2] = Half life in rat liver microsomes; assay type: ADME
PARP 1, 2 and 3 = PARP 1, 2 and 3 (Homo sapiens, UniProt P09874+Q9Y6F1+Q9UGN5); experiment: Inhibition of PARP in human LoVo cells assessed as inhibition of poly(ADP)-ribose polymerization for 30 mins by fluorescence assay; assay type: cell-based
[3] = Cytotoxicity against BRCA2-deficient human Capan1 cells; assay type: functional, cell-based, CAPAN-1; details: Homo sapiens, CAPAN-1
MX1 [4] = experiment: Antitumor activity against BRCA1 deficient human MX1 cells xenografted in athymic nu/nu mouse at 0.1 mg/kg, po qd administered for 21 days; assay type: functional, organism-based
MX1 [5] = experiment: Antitumor activity against BRCA1 deficient human MX1 cells xenografted in athymic nu/nu mouse at 0.33 mg/kg, po qd administered for 28 days; assay type: functional, organism-based
MX1 [6] = experiment: Potentiation of carboplatin-induced tumor growth inhibition of BRCA1 deficient human MX1 cells xenografted in athymic nu/nu mouse at 0.33 mg/kg po and animals were treated with carboplatin at 35 mg/kg, ip on day 1; assay type: functional, organism-based
MX1 [7] = experiment: Potentiation of cisplatin-induced tumor growth inhibition of BRCA1 deficient human MX1 cells xenografted in po dosed athymic nu/nu mouse drug administered for 8 days and animals were treated with cisplatin at 6 mg/kg, ip on day 3; assay type: functional, organism-based
Mus musculus [8] = experiment: Decrease in PAR level in athymic nu/nu mouse xenografted with human MX1 cells at 100 mg/kg, po measured after 24 hrs by ELISA; assay type: functional, organism-based
MX1 [9] = experiment: Antitumor activity against BRCA1 deficient human MX1 cells xenografted in athymic nu/nu mouse assessed as tumor growth inhibition at 0.165 mg/kg, po administered twice a day for 28 days; assay type: functional, organism-based
Mus musculus [10] = experiment: Decrease in PAR level in athymic nu/nu mouse xenografted with human MX1 cells at 1 mg/kg, po administered as single dose measured after 2 ,8 and 24 hrs by ELISA; assay type: functional, organism-based
[11] = Terminal eliminational half life in Sprague-Dawley rat at 5 mg/kg, iv by LC-MS/MS analysis; assay type: ADME, organism-based; details: Sprague-Dawley, in vivo, read-out: beta t1/2 (converted)
[12] = Clearance in Sprague-Dawley rat at 5 mg/kg, iv by LC-MS/MS analysis; assay type: ADME, organism-based; details: in vivo
[13] = Cmax in Sprague-Dawley rat at 10 mg/kg, po by LC-MS/MS analysis; assay type: ADME, organism-based; parameters: dose 10 mg/kg, route oral; details: in vivo
[14] = Oral bioavailability in Sprague-Dawley rat at 10 mg/kg by LC-MS/MS analysis; assay type: ADME, organism-based; details: Sprague-Dawley, in vivo
[15] = Volume of distribution at steady state in Sprague-Dawley rat at 5 mg/kg, iv by LC-MS/MS analysis; assay type: ADME, organism-based; details: in vivo, read-out: Vdss
[16] = AUC in Sprague-Dawley rat at 10 mg/kg, po by LC-MS/MS analysis; assay type: ADME, organism-based; details: Sprague-Dawley, in vivo

Chain of Poly [ADP-ribose] polymerase 1 (P09874 whole entry): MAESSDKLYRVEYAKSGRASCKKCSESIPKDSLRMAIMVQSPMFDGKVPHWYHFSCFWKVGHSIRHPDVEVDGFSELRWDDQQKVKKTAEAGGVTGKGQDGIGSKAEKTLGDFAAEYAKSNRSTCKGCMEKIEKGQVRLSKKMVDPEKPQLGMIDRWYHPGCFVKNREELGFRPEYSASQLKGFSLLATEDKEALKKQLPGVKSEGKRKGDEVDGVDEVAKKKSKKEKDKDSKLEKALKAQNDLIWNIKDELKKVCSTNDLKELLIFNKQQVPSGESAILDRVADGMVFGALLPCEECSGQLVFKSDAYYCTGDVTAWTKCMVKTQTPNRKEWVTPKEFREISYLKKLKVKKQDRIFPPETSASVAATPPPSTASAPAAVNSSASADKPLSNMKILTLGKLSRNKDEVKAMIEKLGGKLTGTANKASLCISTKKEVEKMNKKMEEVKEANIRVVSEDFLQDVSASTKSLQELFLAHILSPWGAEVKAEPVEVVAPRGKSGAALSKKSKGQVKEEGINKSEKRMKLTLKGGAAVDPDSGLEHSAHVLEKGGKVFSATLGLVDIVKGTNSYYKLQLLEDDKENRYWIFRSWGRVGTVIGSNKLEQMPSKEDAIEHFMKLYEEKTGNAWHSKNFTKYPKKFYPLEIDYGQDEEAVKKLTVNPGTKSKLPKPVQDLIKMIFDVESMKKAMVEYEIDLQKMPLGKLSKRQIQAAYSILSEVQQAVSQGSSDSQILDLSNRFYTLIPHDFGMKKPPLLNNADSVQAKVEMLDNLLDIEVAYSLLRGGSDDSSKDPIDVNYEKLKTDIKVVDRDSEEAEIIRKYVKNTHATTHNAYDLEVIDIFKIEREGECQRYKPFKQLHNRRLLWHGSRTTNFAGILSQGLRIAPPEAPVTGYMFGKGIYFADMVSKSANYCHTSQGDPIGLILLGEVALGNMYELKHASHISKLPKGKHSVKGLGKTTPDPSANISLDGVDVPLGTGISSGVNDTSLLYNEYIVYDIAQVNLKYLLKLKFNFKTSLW

Row | Compound | GI50 (LoVo) | IC50 [1] | half-life [2] | EC50 (PARP 1, 2 and 3) | EC50 [3] | further results
1 | O=c1[nH]nc2c3c(cccc13)NC(c1ccc(CN3CCC3)cc1)C2c1ccc(F)cc1 (centres undefined) | 95000 nM | 3.09 nM | 1.48 h | 3.81 nM | 276 nM | 
2 | Cn1ncnc1[C@H]1c2n[nH]c(=O)c3cc(F)cc(c23)N[C@@H]1c1ccc(F)cc1 |  |  |  |  |  | Activity (MX1 [4]): inactive; Activity (MX1 [5]): Active; Activity (MX1 [6]): Active; Activity (MX1 [7]): Dose-dependent effect; inhibition (Mus musculus [8]): inactive; Activity (MX1 [9]): Active; inhibition (Mus musculus [10]): Active
3 | O=c1[nH]nc2c3c(cccc13)NC(c1ccc(CN3CCC3)cc1)C2c1ccccc1 (centres undefined) | 89000 nM | 3.63 nM | 0.133 h | 9.7 nM | 434 nM | 
4 | O=c1[nH]nc2c3c(cccc13)NC(c1ccc(CN3CCCC3)cc1)C2c1ccccc1 (centres undefined) | 90000 nM | 4.02 nM | 0.133 h | 9.47 nM | 298 nM | 
5 | CN(C)Cc1ccc(C2Nc3cccc4c(=O)[nH]nc(c34)C2c2ccc(CN(C)C)cc2)cc1 (centres undefined) | 63000 nM | 3.89 nM | > 2 h | 18.6 nM | 979 nM | 
6 | O=c1[nH]nc2c3c(cccc13)NC(c1ccc(CN3CCCC3)cc1)C2c1ccc(F)cc1 (centres undefined) | 134000 nM | 2.02 nM | 1.48 h | 23 nM | 454 nM | 
7 | O=c1[nH]nc2c3c(cccc13)N[C@H](c1ccc(CN3CCC3)cc1)[C@H]2c1ccc(F)cc1 | 279 nM | 1.1 nM |  | 6.3 nM | 389 nM | half-life [11]: 2.29 h; clearance [12]: 26 mL/min/kg; Cmax [13]: 126 ng/mL; bioavailability [14]: 14%; Vd [15]: 4.5 L/kg; AUC [16]: 914 ng·h/mL

More lines, main results first:

Row | GI50 (LoVo) | IC50 [1] | half-life [2] | EC50 (PARP 1, 2 and 3) | Compound | EC50 [3] | further results
8 | 97000 nM | 2.35 nM | 1.48 h | 16.9 nM | Cn1ccnc1C1c2n[nH]c(=O)c3cccc(c23)NC1c1ccccc1 (centres undefined) | 360 nM | 
9 | 24000 nM | 2.6 nM | 7.87 h |  | Cn1ncnc1C1c2n[nH]c(=O)c3cc(F)cc(c23)NC1c1ccccc1 (centres undefined) | 9 nM | 
10 | 19000 nM |  | 5.98 h |  | Cn1ncnc1C1c2n[nH]c(=O)c3cc(F)cc(c23)NC1c1ccc(F)cc1 (centres undefined) | 8 nM | 
11 | 36300 nM | 2.14 nM | 1.72 h | 18.1 nM | Cn1ccnc1C1c2n[nH]c(=O)c3cc(F)cc(c23)NC1c1ccccc1 (centres undefined) | 108 nM | 
12 | 41 nM | 1.46 nM |  | 5.1 nM | Cn1ncnc1[C@H]1c2n[nH]c(=O)c3cccc(c23)N[C@@H]1c1ccc(F)cc1 | 37 nM | half-life [11]: 2.44 h; clearance [12]: 2 mL/min/kg; Cmax [13]: 7770 ng/mL; bioavailability [14]: 47%; Vd [15]: 0.39 L/kg; AUC [16]: 39900 ng·h/mL
13 | 94000 nM | 2.63 nM | 1.37 h | 6.1 nM | CN(C)Cc1ccc(C2Nc3cc(F)cc4c(=O)[nH]nc(c34)C2c2ccc(F)cc2)cc1 (centres undefined) | 134 nM | 
14 | > 400000 nM | 2.4 nM | 6.9 h | 149 nM | Cn1ncnc1C1c2n[nH]c(=O)c3cccc(c23)NC1c1ccccc1 (centres undefined) | 170 nM | 
